Experimental data published in ChEMBL document CHEMBL5113482, “Discovery of fused benzimidazole-imidazole autophagic flux inhibitors for treatment of triple-negative breast cancer” (Eur J Med Chem, 2022).
Activity calls are given as the source filed them. The calls are words filed in the database; no cut-off is given here.

Key:
[1] = tested on: MDA-MB-231; assay: Antiproliferative activity against human MDA-MB-231 cells assessed as cell growth inhibition measured after 48 hrs by MTT assay; format: functional, cell-based; conditions: MDA-MB-231, 48 h
[2] = tested on: U-251; assay: Antiproliferative activity against human U-251 cells assessed as cell growth inhibition measured after 48 hrs by MTT assay; format: functional, cell-based; conditions: U-251, 48 h
[3] = tested on: MDA-MB-468; assay: Antiproliferative activity against human MDA-MB-468 cells assessed as reduction in cell count by microscopy; format: functional, cell-based
[4] = tested on: MDA-MB-231; assay: Inhibition of colony formation in human MDA-MB-231 cells at 5 to 20 umol/l pretreated for 48 hrs followed by replacement of fresh medium and measured after 15 days by crystal violet staining based assay; format: functional, cell-based; conditions: dose 5-20 µmol/L
[5] = tested on: MDA-MB-231; assay: Inhibition of autophagy in human MDA-MB-231 cells assessed as increase in LC3B-II expression measured after 48 hrs by immunofluorescence analysis; format: functional, cell-based; conditions: dose 5-20 µM
[6] = tested on: MDA-MB-231; assay: Induction of DNA damage in human MDA-MB-231 cells assessed as increase in gamma-H2AX accumulation measured after 48 hrs by immunofluorescence analysis; format: functional, cell-based
[7] = target: T1, Structural maintenance of chromosomes protein 1A (Homo sapiens) (UniProt Q14683); assay: Activation of SMC1 phosphorylation in human MDA-MB-468 cells at 5 to 20 uM measured after 6 to 48 hrs by Western blot analysis; format: cell-based; conditions: filed as activator, dose 5-20 µM, time 6-48 hrs
T1 sequence (whole entry): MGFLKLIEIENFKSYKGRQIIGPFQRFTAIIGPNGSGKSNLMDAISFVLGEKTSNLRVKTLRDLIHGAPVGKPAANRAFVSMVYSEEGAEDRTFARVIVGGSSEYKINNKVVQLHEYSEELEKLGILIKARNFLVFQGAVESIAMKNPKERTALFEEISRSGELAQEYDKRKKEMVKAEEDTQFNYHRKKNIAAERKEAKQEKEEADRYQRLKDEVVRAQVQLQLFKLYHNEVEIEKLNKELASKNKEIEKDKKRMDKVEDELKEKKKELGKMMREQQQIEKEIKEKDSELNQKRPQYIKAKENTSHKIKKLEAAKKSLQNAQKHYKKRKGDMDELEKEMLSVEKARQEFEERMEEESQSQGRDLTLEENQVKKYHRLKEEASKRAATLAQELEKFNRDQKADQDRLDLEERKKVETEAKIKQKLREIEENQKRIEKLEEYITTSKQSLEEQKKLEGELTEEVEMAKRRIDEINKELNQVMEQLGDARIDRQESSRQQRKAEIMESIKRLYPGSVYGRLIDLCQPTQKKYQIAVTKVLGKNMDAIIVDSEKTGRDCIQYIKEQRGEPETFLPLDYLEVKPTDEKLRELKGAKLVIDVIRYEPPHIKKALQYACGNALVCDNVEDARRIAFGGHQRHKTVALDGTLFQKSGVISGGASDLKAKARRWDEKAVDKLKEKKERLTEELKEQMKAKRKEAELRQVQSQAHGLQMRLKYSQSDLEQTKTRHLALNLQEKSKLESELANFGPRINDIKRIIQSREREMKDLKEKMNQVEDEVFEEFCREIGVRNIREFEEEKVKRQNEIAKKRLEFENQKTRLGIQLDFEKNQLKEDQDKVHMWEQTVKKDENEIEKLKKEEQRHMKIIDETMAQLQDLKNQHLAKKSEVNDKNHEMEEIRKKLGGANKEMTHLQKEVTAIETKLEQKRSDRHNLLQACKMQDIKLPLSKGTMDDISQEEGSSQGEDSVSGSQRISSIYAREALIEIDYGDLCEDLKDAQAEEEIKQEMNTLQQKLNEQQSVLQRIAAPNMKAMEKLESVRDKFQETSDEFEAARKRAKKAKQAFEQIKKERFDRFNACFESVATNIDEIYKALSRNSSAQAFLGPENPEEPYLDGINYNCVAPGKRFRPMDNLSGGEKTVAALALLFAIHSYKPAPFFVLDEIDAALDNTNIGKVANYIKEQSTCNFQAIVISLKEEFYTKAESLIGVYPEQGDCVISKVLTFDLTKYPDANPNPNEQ

[8] = tested on: MDA-MB-231; assay: Induction of DNA damage in human MDA-MB-231 cells assessed as reduction in RAD51 expression measured after 6 to 48 hrs by Western blot analysis; format: functional, cell-based; conditions: dose 5-20 µM, time 6-48 hrs, DDE = dose-dependent effect
[9] = tested on: MDA-MB-468; assay: Induction of DNA damage in human MDA-MB-468 cells assessed as reduction in BRCA2 expression measured after 6 to 48 hrs by Western blot analysis; format: functional, cell-based; conditions: dose 5-20 µM, time 6-48 hrs, DDE = dose-dependent effect
[10] = tested on: MDA-MB-231; assay: Inhibition of autophagic flux in human MDA-MB-231 cells assessed as increase in cytoplasmic p62 expression measured after 48 hrs by Western blot analysis; format: functional, cell-based; conditions: dose 5-20 µM, DDE = dose-dependent effect
[11] = tested on: MDA-MB-231; assay: Inhibition of autophagic flux in human MDA-MB-231 cells assessed as reduction in RNF8 expression at 5 to 20 uM measured after 6 to 48 hrs by Western blot analysis; format: functional, cell-based; conditions: dose 5-20 µM, time 6-48 hrs
[12] = tested on: MDA-MB-231; assay: Cell cycle arrest in human MDA-MB-231 cells assessed as increase in accumulation at S-phase at 5 to 20 uM measured after 48 hrs by propidium iodide staining based flow cytometry; format: functional; conditions: dose 5-20 µM
[13] = tested on: MDA-MB-231; assay: Cell cycle arrest in human MDA-MB-231 cells assessed as increase in p21 expression measured after 48 hrs by Western blot analysis; format: functional, cell-based; conditions: dose 5-20 µM, DDE = dose-dependent effect
[14] = tested on: MDA-MB-231; assay: Cell cycle arrest in human MDA-MB-231 cells assessed as increase in CHK2 phosphorylation at Thr 68 residue measured after 48 hrs by Western blot analysis; format: functional, cell-based; conditions: dose 5-20 µM, DDE = dose-dependent effect
[15] = tested on: MDA-MB-231; assay: Induction of apoptosis in human MDA-MB-231 cells assessed as increase in late apoptotic cells measured after 48 hrs by Annexin V-FITC/propidium iodide staining based flow cytometry; format: functional, cell-based; conditions: dose 5-20 µM, DDE = dose-dependent effect
[16] = tested on: MDA-MB-231; assay: Induction of apoptosis in human MDA-MB-231 cells assessed as increase in cytochrome c expression measured after 48 hrs by Western blot analysis; format: functional, cell-based; conditions: dose 5-20 µM, DDE = dose-dependent effect
[17] = tested on: MDA-MB-468; assay: Induction of apoptosis in human MDA-MB-468 cells assessed as increase in cleaved caspase-3 expression measured after 48 hrs by Western blot analysis; format: functional, cell-based; conditions: dose 5-20 µM, DDE = dose-dependent effect
[18] = tested on: MDA-MB-231; assay: Antitumor activity against human MDA-MB-231 cells xenografted in NOD/SCID mouse assessed as reduction in tumor size at 5 to 15 mg/kg, ip administered at 3 days interval for 24 days and measured on day 25; format: functional, organism-based; conditions: dose 5-15 mg/kg, time 25.0 day
[19] = tested on: MDA-MB-231; assay: Antitumor activity against human MDA-MB-231 cells xenografted in NOD/SCID mouse assessed as reduction in cell count at 5 to 15 mg/kg, ip administered at 3 days interval for 24 days and measured on day 25 by H and E staining based assay; format: functional, organism-based; conditions: dose 5-15 mg/kg, time 25.0 day
[20] = tested on: MDA-MB-231; assay: Antitumor activity against human MDA-MB-231 cells xenografted in ip dosed NOD/SCID mouse assessed as upregulation of gamma-H2AX expression administered at 3 days interval for 24 days and measured on day 25 by Western blot analysis; format: functional, organism-based; conditions: dose 5-15 mg/kg, time 25.0 day, DDE = dose-dependent effect
[21] = tested on: MDA-MB-231; assay: Antitumor activity against human MDA-MB-231 cells xenografted in ip dosed NOD/SCID mouse assessed as upregulation of PARP expression administered at 3 days interval for 24 days and measured on day 25 by Western blot analysis; format: functional, organism-based; conditions: dose 5-15 mg/kg, time 25.0 day, DDE = dose-dependent effect

- IC50 [1]: 8.3 µM
- IC50 [2]: 12.9 µM
- Activity [7]: Active
SMILES: O=C(NC1CCCCC1)c1[nH]cnc1-c1nc2ccccc2[nH]1
- Activity [3]: Active
- inhibition [4]: Active
- inhibition [5]: Active
- Activity [6]: Active
- Activity [8]: Dde
- Activity [9]: Dde
- inhibition [10]: Dde
- inhibition [11]: Active
- Activity [12]: Active
- Activity [13]: Dde
- Activity [14]: Dde
- Activity [15]: Dde
- Activity [16]: Dde
- Activity [17]: Dde
- Activity [18]: Active
- Activity [19]: Active
- Activity [20]: Dde
- Activity [21]: Dde
